# Measured values published in patent publication US20230079045A1 (priority 2019, published 2023).
# Assays:
# Format in all cases: cell-based, influenza virus
# IFVA/Mal/302/54 = assay: cytopathic effect (CPE) antiviral test in MDCK cells, IFVA/Mal/302/54; details: unidentified influenza virus, MDCK, 120 h, read-out: EC50(IFVA/Mal/302/54), MDCK cells, CPE method, CCK-8 cell viability, 5 days
# IFV A/PR/8/34 = assay: cytopathic effect (CPE) antiviral test in MDCK cells, IFV A/PR/8/34; details: unidentified influenza virus, PR/8, MDCK, 120 h, read-out: EC50(IFV A/PR/8/34)
# IFVA/Weiss/43 = assay: cytopathic effect (CPE) antiviral test in MDCK cells, IFVA/Weiss/43; details: unidentified influenza virus, MDCK, 120 h, read-out: EC50(IFVA/Weiss/43), MDCK cells, CPE method, CCK-8 cell viability, 5 days
Structure (SMILES),EC50 (IFVA/Mal/302/54) [nM],EC50 (IFV A/PR/8/34) [nM],EC50 (IFVA/Weiss/43) [nM]
"Cn1ccnc1-c1ccc2nc(-c3ccnc(C(=O)N4CCN(C(c5ccccc5)c5nnn(C(F)F)n5)CC4)c3)oc2c1 (racemic) [Compound 107, (R/S)-(4-((2-(difluoromethyl)-2H-tetrazol-5-yl)(phenyl)methyl)piperazin-1-yl)(4-(6-(1-methyl-1H-imidazol-2-yl)benzo[d]oxazol-2-yl)pyridin-2-yl)methanone]",6,9,2
"CC(C)(F)C(=O)Nc1ccc2oc(-c3ccnc(C(=O)N4CCN(C(c5ccccc5)c5nnn(C(F)F)n5)CC4)c3)nc2c1 (racemic) [Compound 108, (R/S)—N-(2-(2-(4-((2-(difluoromethyl)-2H-tetrazol-5-yl)(phenyl)methyl)piperazine-1-carbonyl)pyridin-4-yl)benzo[d]oxazol-5-yl)-2-fluoro-2-methylpropanamide]",6,23,2
"[2H]C([2H])([2H])C(C(=O)Nc1ccc2oc(-c3ccnc(C(=O)N4CCN(C(c5ccccc5)c5nnn(C(F)F)n5)CC4)c3)nc2c1)C([2H])([2H])[2H] (racemic) [Compound 109, (R/S)—N-(2-(2-(4-((2-(difluoromethyl)-2H-tetrazol-5-yl)(phenyl)methyl)piperazine-1-carbonyl)pyridin-4-yl)benzo[d]oxazol-5-yl)-2-(methyl-d3)propanamide]",11,12,6
"O=C(c1cc(-c2nc3cc(-c4cnccn4)ccc3o2)ccn1)N1CCN(C(c2ccccc2)c2nnn(C(F)F)n2)CC1 (racemic) [Compound 112, (R/S)-(4-((2-(difluoromethyl)-2H-tetrazol-5-yl)(phenyl)methyl)piperazin-1-yl)(4-(5-(pyrazin-2-yl)benzo[d]oxazol-2-yl)pyridin-2-yl)methanone]",8,36,11
"CC(=O)N(C)c1ccc2oc(-c3ccnc(C(=O)N4CCN(C(c5ccccc5)c5nnn(C(F)F)n5)CC4)c3)nc2c1 (racemic) [Compound 113, (R/S)—N-(2-(2-(4-((2-(difluoromethyl)-2H-tetrazol-5-yl)(phenyl)methyl)piperazine-1-carbonyl)pyridin-4-yl)benzo[d]oxazol-5-yl)-N-methylacetamide]",18,20,19
"[2H]C([2H])([2H])C(=O)Nc1ccc2oc(-c3ccnc(C(=O)N4CCN(C(c5ccccc5)c5nnn(C(F)F)n5)CC4)c3)nc2c1 (racemic) [Compound 114, (R/S)—N-(2-(2-(4-((2-(difluoromethyl)-2H-tetrazol-5-yl)(phenyl)methyl)piperazine-1-carbonyl)pyridin-4-yl)benzo[d]oxazol-5-yl) Deuterated Acetamide]",10,25,19
"O=C(c1cc(-c2nc3cc(-c4nccs4)ccc3o2)ccn1)N1CCN(C(c2ccccc2)c2nnn(C(F)F)n2)CC1 (racemic) [Compound 119, (R/S)-(4-((2-(difluoromethyl)-2H-tetrazol-5-yl)(phenyl)methyl)piperazin-1-yl)(4-(5-(thiazol-2-yl)benzo[d]oxazol-2-yl)pyridin-2-yl)methanone]",6,22,2
"O=C(Nc1ccc2oc(-c3ccnc(C(=O)N4CCN(C(c5ccccc5)c5nnn(C(F)F)n5)CC4)c3)nc2c1)C1CC1 (stereo not drawn) [Compound 36, N-(2-(2-(4-((2-(difluoromethyl)-2H-tetrazol-5-yl)(phenyl)methyl)piperazine-1-carbonyl)pyridin-4-yl)benzo[d]oxazol-5-yl)cyclopropanecarboxamide]",10,17,4
"Cn1ccnc1-c1ccc2oc(-c3ccnc(C(=O)N4CCN(C(c5ccccc5)c5nnn(C(F)F)n5)CC4)c3)nc2c1 (stereo not drawn) [Compound 72, (4-((2-(difluoromethyl)-2H-tetrazol-5-yl)(phenyl)methyl)piperazin-1-yl)(4-(5-(1-methyl-1H-imidazol-2-yl)benzo[d]oxazol-2-yl)pyridin-2-yl)methanone]",4,4,4
"O=C(Nc1ccc2oc(-c3ccnc(C(=O)N4CCN([C@H](c5ccccc5)c5nnn(C(F)F)n5)CC4)c3)nc2c1)[C@@H]1CC1(F)F [Compound 73, (S)—N-(2-(2-(4-((R)-(2-(difluoromethyl)-2H-tetrazol-5-yl)(phenyl)methyl)piperazine-1-carbonyl)pyridin-4-yl)benzo[d]oxazol-5-yl)-2,2-difluorocyclopropane-1-carboxamide]",6,3,2
"O=C(Nc1ccc2oc(-c3ccnc(C(=O)N4CCN([C@H](c5ccccc5)c5nnn(C(F)F)n5)CC4)c3)nc2c1)[C@@H]1C[C@@H]1F [Compound 75, (1S,2S)—N-(2-(2-(4-((R)-(2-(difluoromethyl)-2H-tetrazol-5-yl)(phenyl)methyl)piperazine-1-carbonyl)pyridin-4-yl)benzo[d]oxazol-5-yl)-2-fluorocyclopropane-1-carboxamide]",6,2,2
"Cc1nnn(C(c2ccccc2)C2CCN(C(=O)c3cc(-c4nc5cc(NC(=O)[C@@H]6C[C@@H]6F)ccc5o4)ccn3)CC2)n1 (stereo partly drawn) [Compound 85, (1S,2S)-2-fluoro-N-(2-(2-(4-((5-methyl-2H-tetrazol-2-yl)(phenyl)methyl)piperidine-1-carbonyl)pyridin-4-yl)benzo[d]oxazol-5-yl)cyclopropanecarboxamide]",4,4,4
